Measurements from patent US20100222330A1, “New Compounds” (BIOVITRUM AB, priority 2001, published 2010).

What was measured:
ob/ob mouse = assay: In vivo assay of reduction of food intake (15 h, osmotic minipump infusion); details: for % Inhibition of Food Intake in ob/ob mice at 50 mg/Kg/day, 15 h: continuous subcutaneous infusion
Method: Obese (ob/ob) mouse is selected as the primary animal model for screening as this mutant mouse consumes high amounts of food resulting in a high signal to noise ratio. To further substantiate and compare efficacy data, the effect of the compounds on food consumption is also studied in wild type (C57BL/6J) mice. The amount of food consumed during 15 hours of infusion of compounds is recorded.
Male mice (obese C57BL/6JBom-Lee and lean wild-type C57B1/6JBom; Bomholtsgaard, Denmark) 8-9 weeks with an average body weight of 50 g (obese) and 25 g (lean) are used in all the studies. The animals are housed singly in cages at 23±1° C., 40-60% humidity and have free access to water and standard laboratory chow. The 12/12-h light/dark cycle is set to lights off at 5 p.m. The animals are conditioned for at least one week before start of study.
The test compounds are dissolved in solvents suitable for each specific compound such as cyclodextrin, cyclodextrin/methane sulfonic acid, polyethylene glycol/methane sulfonic acid, saline. Fresh solutions are made for each study. […] The purity of the test compounds is of analytical grade.
The animals are weighed at the start of the study and randomized based on body weight. Alzet osmotic minipumps (Model 2001 D; infusion rate 8 μl/h) are used and loaded essentially as recommended by the Alzet technical information manual (Alza Scientific Products, 1997; Teeuwes and Yam, 1976). Continuous subcutaneous infusion with 24 hours duration is used. The minipumps are either filled with different concentrations of test compounds dissolved in vehicle or with only vehicle solution and maintained in vehicle pre-warmed to 37° C. (approx. 1 h). The minipumps are implanted subcutaneously in the neck/back region under short acting anesthesia (metofane/enflurane). This surgical procedure lasts approximately 5 min. It takes about 3 h to reach steady state delivery of the compound.
(§1) The weight of the food pellets are measured at 5 p.m. and at 8 p.m. for two days before (baseline) and one day after the implantation of the osmotic minipumps. The weigh-in is performed with a computer assisted Mettler Toledo PR 5002 balance. Occasional spillage is corrected for. At the end of the study the animals are killed by neck dislocation and trunk blood sampled for later analysis of plasma drug concentrations.
Food consumption for 15 hours is measured for the three consecutive days and the percentage of basal level values is derived for each animal from the day before and after treatment. The values are expressed as mean±SD and ±SEM from eight animals per dose group. Statistical evaluation is performed by Kruskal-Wallis one-way ANOVA using the percent basal values. If statistical significance is reached at the level of p<0.05, Mann-Whitney U-test for statistical comparison between control and treatment groups is performed.

[1] = Plasma drug concentration at steady state in the food intake study (LC/MS); format: in vivo; design: unit not given here; details: ob/ob mouse, trunk blood at end of study
Method: as §1
The plasma sample proteins are precipitated with methanol, centrifuged and the supernatant is transferred to HPLC vials and injected into the liquid chromatography/mass spectrometric system. The mass spectrometer is set for electrospray positive ion mode and Multiple Reaction Monitoring (MRM with the transition m/z 316 ? 221). A linear regression analysis of the standards forced through the origin is used to calculate the concentrations of the unknown samples.

SMILES	% Inhibition of Food Intake in ob/ob mice at 50 mg/Kg/day, 15 h (ob/ob mouse)	Free plasma concentration of the compounds at steady state (Css, u) [1]	melting point	% Inhibition of Food Intake in ob/ob mice, 15 h (ob/ob mouse; dose of 14.8 mg/kg/d (footnote a))	% Inhibition of Food Intake in ob/ob mice, 15 h (ob/ob mouse; dose of 100 mg/kg/d (footnote b))
COc1ccc(S(=O)(=O)Nc2ccc(N3CCNCC3)c3ccccc23)cc1.Cl [Example 29, 4-Methoxy-N-(4-piperazin-1-yl-naphthalen-1-yl)-benzenesulfonamide, hydrochloride]	71%	0.33	–	–	–
Cc1c(Cl)cccc1S(=O)(=O)Nc1ccc(N2CCNCC2)c2ccccc12.Cl [Example 48, 3-Chloro-2-methyl-N-(4-piperazin-1-yl-naphthalen-1-yl)-benzenesulfonamide, hydrochloride]	23.8%	0.008	–	–	–
Cc1ccc(F)cc1S(=O)(=O)Nc1ccc(N2CCNCC2)c2ccccc12.Cl [Example 34, 5-Fluoro-2-methyl-N-(4-piperazin-1-yl-naphthalen-1-yl)-benzenesulfonamide, hydrochloride]	51.4%	0.078	–	–	–
Cl.O=S(=O)(Nc1ccc(N2CCNCC2)c2ccccc12)c1ccc(Cl)cc1 [Example 30, 4-Chloro-N-(4-piperazin-1-yl-naphthalen-1-yl)-benzenesulfonamide, hydrochloride]	60.1%	0.275	–	–	–
Cl.O=S(=O)(Nc1ccc(N2CCNCC2)c2ccccc12)c1cccc2ccccc12 [Example 27, Naphthalene-1-sulfonic acid (4-piperazin-1-yl-naphthalen-1-yl)-amide, hydrochloride]	68.9%	0.008	–	–	–
Cc1ccc(S(=O)(=O)Nc2ccc(N3CCNCC3)c3ccccc23)cc1.Cl	–	–	181 °C (dec.)	–	–
Cc1cc(Cl)cc(Cl)c1S(=O)(=O)Nc1ccc(N2CCNCC2)c2ccccc12.Cl [Example 53, 2,4-Dichloro-6-methyl-N-(4-piperazin-1-yl-naphthalen-1-yl)-benzenesulfonamide, hydrochloride]	–	–	–	25.7^a %	–
Cc1ccc(S(=O)(=O)N(C)c2ccc(N3CCNCC3)c3ccccc23)cc1.Cl [Example 14, N,4-Dimethyl-N-[4-(1-piperazinyl)-1-naphthyl]benzenesulfonamide, hydrochloride]	–	0.23	–	–	41^b %
Cl.O=S(=O)(Nc1ccc(N2CCNCC2)c2ccccc12)c1ccc2ccccc2c1 [Example 13, 2-N-[4-(1-piperazinyl)-1-naphthyl]naphthalenesulfonamide, hydrochloride]	24.1%	0.035	–	–	–
Cl.O=S(=O)(Nc1ccc(N2CCNCC2)c2ccccc12)c1cccc(C(F)(F)F)c1 [Example 24, 3-Trifluoromethyl-N-[4-(1-piperazinyl)-1-naphthyl]benzenesulfonamide, hydrochloride]	46.2%	0.0076	–	–	–
Cl.O=S(=O)(Nc1ccc(N2CCNCC2)c2ccccc12)c1ccc(Br)cc1 [Example 19, 4-Bromo-N-(4-piperazin-1-yl-naphthalen-1-yl)-benzenesulfonamide, hydrochloride]	69.6%	0.150	–	–	–
